From PubChem BioAssay AID1549 (Sanford-Burnham Center for Chemical Genomics, 2009)
Active and inactive are the calls of the source. The rule behind the calls is not given here.

Target: Influenza A virus M2 proton channel (A/TW/4845/1999 H1N1)
Assay: NMR binding screen, influenza A virus M2 proton channel, Kd (AID 1549)
Conditions: M2 protein

| SMILES | Kd |
| --- | --- |
| Nc1cccc(S(=O)(=O)N2CCCCC2)c1 | > 4 mM (inactive) |
| O=C1C2CC=CCC2C(=O)N1c1ccccc1 (centres undefined) | > 4 mM (inactive) |
| C/C=C(\C)C(=O)O[C@H]1C[C@@H](OC(C)=O)[C@@]2(C(=O)OC)CO[C@@H]3C2[C@]12CO[C@](O)(C(=O)OC)[C@H]2[C@](C)(C12O[C@@]1(C)[C@H]1C[C@@H]2OC2OC=C[C@@]21O)[C@@H]3O (some centres undefined) | > 4 mM (inactive) |
| O=c1[nH]cc(CN2CCOCC2)c(=O)[nH]1 | > 4 mM (inactive) |
| Cc1nc2c(=O)[nH]c3ccccc3c2o1 | > 4 mM (inactive) |
| COc1c2ccoc2cc2oc(=O)ccc12 | > 4 mM (inactive) |
| O=C(O)CCCCC1SCC2NC(=O)NC21 (centres undefined) | > 4 mM (inactive) |
| C[C@@H]1CC[C@@]23CCC4(C)[C@@](C=CC5[C@@]6(C)CC[C@H](O)C(C)(C)C6CC[C@]54C)(OC2=O)C3[C@H]1C (some centres undefined) | > 4 mM (inactive) |
| C=C1C(=O)OC2CC1C(OC(C)=O)C/C(C)=C/CC/C(C)=C/CC[C@]2(C)O (some centres undefined) | > 4 mM (inactive) |
| O=C1CC(=O)N2N=C(c3ccccc3)SC2=N1 | > 4 mM (inactive) |
| COC(=O)C[C@H]1C(C)(C)C(=O)[C@@H]2CC3C4=CC(=O)O[C@@H](c5ccoc5)[C@]4(C)CCC3C1(C)C2=O (some centres undefined) | > 4 mM (inactive) |
| COC(=O)[C@]1(C)CC[C@]2(C)CC[C@]3(C)C4=CC=C5C(=CC(=O)C(O)=C5C)[C@]4(C)CC[C@@]3(C)[C@@H]2C1 | > 4 mM (inactive) |
| Nc1nnc(Cc2ccc(Cl)cc2)s1 | > 4 mM (inactive) |
| CC[C@]12CCCN3CCc4c(n(c5ccccc45)[C@](O)(C(=O)OC)C1)[C@@H]32 | > 4 mM (inactive) |
| CCc1cc(=O)[nH]c(SCC(=O)NCCOC)n1 | > 4 mM (inactive) |
| COc1ccc2c(c1)CCCN2C(N)=O | > 4 mM (inactive) |
| CC(=O)c1ccc2c(c1)OCCO2 | > 4 mM (inactive) |
| OC1CCNC2CCCCC12 (centres undefined) | > 4 mM (inactive) |
| CCCS(=O)(=O)N1CCN(c2ccccn2)CC1 | > 4 mM (inactive) |
| OCc1ccc2c(c1)CCO2 | > 4 mM (inactive) |
| COc1cccc(OC)c1C(=O)N1CCOCC1 | > 4 mM (inactive) |

| SMILES | Kd |
| --- | --- |
| CSc1nnc2c(n1)OC(C)=Nc1ccccc1-2 | > 4 mM (inactive) |
| O=C(c1ccc(F)cc1)N1CCN(c2ncccn2)CC1 | > 4 mM (inactive) |
| O=C(Nn1c(=S)[nH]c2ccccc2c1=O)c1ccncc1 | > 4 mM (inactive) |
| O=C(NN1CCOCC1)c1ccccc1F | > 4 mM (inactive) |
| CC(=O)Nc1ccc(NC2SC(=O)NC2=O)cc1 (centres undefined) | > 4 mM (inactive) |
| COc1ccc(-c2coc3cc(O)ccc3c2=O)c(OC)c1 | > 4 mM (inactive) |
| COC(=O)c1cccnc1Oc1ccccc1 | > 4 mM (inactive) |
| CSc1n[nH]c(NCc2cccs2)n1 | > 4 mM (inactive) |
| O=C(Nc1cnccn1)c1ccncc1 | > 4 mM (inactive) |
| O=C(Nc1cccc(O)c1)c1ccccc1 | > 4 mM (inactive) |
| O=C(c1nc2ncccn2n1)N1CCc2ccccc2C1 | > 4 mM (inactive) |
| Nc1ccc(S(=O)(=O)N2CCCCC2)cc1 | > 4 mM (inactive) |
| O=C(c1ccccc1)c1ccccc1C(=O)N1CCOCC1 | > 4 mM (inactive) |
| CC(=O)Nc1nnc(-c2ccco2)o1 | > 4 mM (inactive) |
| Cc1nnsc1C(=O)N(C)c1ccccc1 | > 4 mM (inactive) |
| CN(C)C(=O)Oc1ccc(-c2nnco2)cc1 | > 4 mM (inactive) |
| O=C(Nc1ccccn1)c1cc(-n2cnnc2)ccc1Cl | > 4 mM (inactive) |
| Cc1cc(NC(=O)c2ocnc2C)no1 | > 4 mM (inactive) |
| COc1ccc(CN2CCOCC2)c(C)c1C | > 4 mM (inactive) |
| CCOc1cc(C)c(Cl)cc1S(=O)(=O)N(C)C | > 4 mM (inactive) |
| CC(CO)NC(=O)C1C=C2c3cccc4[nH]cc(c34)C[C@H]2N(C)C1 (some centres undefined) | > 4 mM (inactive) |

| SMILES | Kd |
| --- | --- |
| O=c1ccn(Cc2ccccc2)c(=O)n1Cc1ccccc1 | > 4 mM (inactive) |
| N#CCSc1nnc2ccc3ccccc3n12 | > 4 mM (inactive) |
| NC(=O)C1CCN(Cc2ccccc2)CC1 | > 4 mM (inactive) |
| Cn1nnc2cc(CO)ccc21 | > 4 mM (inactive) |
| CCNC(=S)NS(=O)(=O)c1ccccc1 | > 4 mM (inactive) |
| COC(=O)c1ccc2nsnc2c1 | > 4 mM (inactive) |
| Cc1noc(C)c1C(=O)Nc1ccccc1-c1ccccc1 | > 4 mM (inactive) |
| Cc1nnc(-n2cnc3ccccc32)c2ccccc12 | > 4 mM (inactive) |
| NC(=O)CS(=O)(=O)c1ccc2ccccc2c1 | > 4 mM (inactive) |
| CNc1nc(SC)nc(N2CCOCC2)n1 | > 4 mM (inactive) |
| CN(C)S(=O)(=O)c1ccc(NC=O)cc1 | > 4 mM (inactive) |
| NCc1ccc2c(c1)OCO2 | > 4 mM (inactive) |
| O=C(O[C@@H]1Cc2c(O)cc(O)cc2O[C@@H]1c1cc(O)c(=O)c2c(O)c(O)cc([C@H]3Oc4cc(O)cc(O)c4C[C@H]3OC(=O)c3cc(O)c(O)c(O)c3)c2c1)c1cc(O)c(O)c(O)c1 | > 4 mM (inactive) |
| Cc1cc(NC(=O)c2cccc(N3C(=O)CCC3=O)c2)no1 | > 4 mM (inactive) |
| COc1cccc(C(=O)Nc2c(C)n[nH]c2C)c1 | > 4 mM (inactive) |
| Cc1cn(C(=O)CN2C(=O)c3ccccc3C2=O)c(C)n1 | > 4 mM (inactive) |
| Cn1c(=O)n(C)c2cc(C(N)=O)ccc21 | > 4 mM (inactive) |
| Cc1ccccc1NC(=S)NCCO | > 4 mM (inactive) |
| Cc1nn(CC(=O)N2CCCCC2)c(=O)c2ccccc12 | > 4 mM (inactive) |
| CC1=NN2C(=N)CC(=O)N=C2S1 | > 4 mM (inactive) |
| O=C1CCCc2c(O)cccc21 | > 4 mM (inactive) |

| SMILES | Kd |
| --- | --- |
| NS(=O)(=O)c1ccc2c(c1)OCCO2 | > 4 mM (inactive) |
| Nc1nc(CSc2ncn(-c3ccccc3)n2)cs1 | > 4 mM (inactive) |
| Cc1oc(S(=O)(=O)N2CCCCC2)cc1C(=O)O | > 4 mM (inactive) |
| COC(=O)c1scc(S(C)(=O)=O)c1-n1cccc1 | > 4 mM (inactive) |
| COC(=O)Cc1csc(N)n1 | > 4 mM (inactive) |
| CC1(C)SCC(C(=O)O)N1C=O (centres undefined) | > 4 mM (inactive) |
| Cn1c([O-])c([N+](C)(C)C)c(=O)n(C)c1=O | > 4 mM (inactive) |
| Cc1cc(N)ccc1NC(=O)c1ccco1 | > 4 mM (inactive) |
| Cc1cc(O)cc(O)c1C(=O)O | > 4 mM (inactive) |
| COc1ccc(-c2nc3nc(C)cc(C)n3n2)cc1 | > 4 mM (inactive) |
| CC(=O)Nc1ccc(S(=O)(=O)N(C)C)cc1 | > 4 mM (inactive) |
| CC12CNCC(C)(CNC1)C2O (centres undefined) | > 4 mM (inactive) |
| O=C(O)c1ccc2sccc2c1 | > 4 mM (inactive) |
| Cc1nn(C)c(Cl)c1C(O)c1c(C)nn(C)c1Cl | > 4 mM (inactive) |
| Cc1cc(NC(=O)c2cccc(S(C)(=O)=O)c2)no1 | > 4 mM (inactive) |
| CC1=NNC(=O)C1CCc1ccncc1 (centres undefined) | > 4 mM (inactive) |
| Nc1ncnc(NCCO)c1[N+](=O)[O-] | > 4 mM (inactive) |
| CN(C)Cc1nc2c([nH]1)c(=O)[nH]c(=O)n2C | > 4 mM (inactive) |
| CCn1c2ccccc2c2nn(C)c(=N)nc21 | > 4 mM (inactive) |
| CC1=CC(=O)C2C(C)(C)CCC[C@]2(C)[C@@]1(O)CCc1ccoc1 (some centres undefined) | > 4 mM (inactive) |
| O=C(O)CC(O)c1nc2ccccc2[nH]1 (centres undefined) | > 4 mM (inactive) |
